Experimental data taken from US7589123B2, “Chemical compounds” (Phytopharm PLC, priority 2006, dated 2009).

Tests used:
[1] = test system: WI-38 cells; assay: Viability of WI-38 cells, Alamar Blue (Assay 5); type: cell-based, human
Outline: (§1)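 Cell viability was read by Alamar Blue fluorescence (530/590 nm) after 4 h at 37 °C, following an overnight 37 °C incubation of human lung fibroblasts with 1 nM IL-1α and compound (3 or 30 μM) in 10% FBS MEM, pH 7.3. Supernatant PGE2 was measured by radioimmunoassay to derive percent inhibition.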

[2] = test system: histamine-induced contractions in guinea pig ileum; assay: Inhibition of histamine-induced contractions in guinea pig ileum (Assay 3); details: Cavia porcellus, histamine 1.7 μM, read-out: Inhibition of histamine-induced contraction (%)
Outline: (§2)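 Ileal strips from male Duncan Hartley guinea pigs were held at 1 g tension in 32° C oxygenated Krebs (pH 7.4) with isotonic transducers. After control contractions to 5-HT (2.6 μM) or histamine (1.7 μM), compound at 3 and 30 μM was added, its own effect noted, and agonist re-applied.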

[3] = target: T1, 5-lipoxygenase (Homo sapiens, UniProt P09917); assay: 5-lipoxygenase activity (LTB4) in human peripheral blood mononuclear leukocytes (Assay 6); type: cell-based; details: human PBMLs, A23187 30 μM, read-out: Inhibition of 5-LO (%)
T1 construct: endogenous in cells; host or cells: human peripheral blood mononuclear leukocytes (PBMLs)
T1 sequence (P09917 1-674): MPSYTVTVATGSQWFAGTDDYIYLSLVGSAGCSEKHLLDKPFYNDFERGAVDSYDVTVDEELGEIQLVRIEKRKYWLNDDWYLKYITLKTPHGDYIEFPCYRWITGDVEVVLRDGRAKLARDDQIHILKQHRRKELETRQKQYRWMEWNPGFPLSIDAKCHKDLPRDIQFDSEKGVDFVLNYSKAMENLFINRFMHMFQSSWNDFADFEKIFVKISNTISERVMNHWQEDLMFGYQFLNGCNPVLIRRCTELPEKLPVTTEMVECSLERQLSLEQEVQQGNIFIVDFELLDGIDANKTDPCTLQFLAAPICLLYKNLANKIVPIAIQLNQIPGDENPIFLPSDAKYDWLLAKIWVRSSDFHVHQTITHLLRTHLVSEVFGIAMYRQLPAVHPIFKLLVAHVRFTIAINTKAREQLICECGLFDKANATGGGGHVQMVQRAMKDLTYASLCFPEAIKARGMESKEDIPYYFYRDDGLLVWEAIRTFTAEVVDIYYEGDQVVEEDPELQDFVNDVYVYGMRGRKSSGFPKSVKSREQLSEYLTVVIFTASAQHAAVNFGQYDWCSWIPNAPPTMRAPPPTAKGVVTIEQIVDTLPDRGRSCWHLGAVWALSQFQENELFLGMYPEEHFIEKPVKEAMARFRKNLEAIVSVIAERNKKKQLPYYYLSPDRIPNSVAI
Outline: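 LTB4 in supernatant quantified by EIA after 15 min at 37° C. in HBSS, pH 7.4, where Ficoll-isolated human PBMLs (5×10^6) received ionophore A23187 (30 μM) and test compound (3 and 30 μM) or 0.1% DMSO vehicle.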

[4] = test system: IL-1α-induced PGE2 release; assay: IL-1α-induced PGE2 release in human diploid lung fibroblasts (WI-38) (Assay 5); type: cell-based; details: Homo sapiens, WI-38 cells, IL-1α 1 nM, overnight
Outline: as §1

[5] = target: T2, TRPV1 receptor (Rattus norvegicus, UniProt O35433); assay: TRPV1 modulation in DRG neurones: CGRP release in absence and presence of capsaicin (Assay 2); type: cell-based; design: The culture used for this experiment contained sensory neurones, Schwann cells and fibroblasts; endogenous in cells; host or cells: primary rat DRG sensory neurone culture (with Schwann cells and fibroblasts); details: 20 min; for inhibition at 3 µM: 3 μM with capsaicin 1 μM; for inhibition at 3 µM / inhibition at 30 µM: −ve: inhibition, +ve: potentiation of capsaicin response, read-out: Effect of test compounds on capsaicin (1 μM)-induced CGRP release (%); for inhibition at 30 µM: 30 μM with capsaicin 1 μM; for Emax at 3 µM: test compound alone 3 μM; for Emax at 3 µM / Emax at 30 µM: rat DRG sensory neurones, read-out: CGRP release (% of capsaicin (1 μM) response); for Emax at 30 µM: test compound alone 30 μM
[6] = target: T2, TRPV1 receptor; assay: TRPV1 receptor modulation in the rat vas deferens, EFS-induced contraction (Assay 1); details: electrical field stimulation, read-out: Inhibition of EFS response relative to capsaicin
Protocol: Wistar derived male rats (275±25 g) were suppressed by CO2 overexposure. The vas deferens was removed, placed in Krebs solution, pH 7.4 (composition in g/l: NaCl 6.89, KCl 0.35, CaCl2 0.277, KH2PO4 0.163, MgSO4.7H2O 0.296, NaHCO3 2.1 glucose 1.8) and excess fat and connective tissue removed. The portion of the vas deferens closest to the prostate was cut in half and each half was placed under 1 g tension in a 10 ml bath containing Krebs solution at 32° C. The tissue was contracted by electrical field stimulation (EFS; 60% of maximum stimulation, 0.015 Hz, 0.5 ms in duration) and contractile responses were measured.

[7] = test system: 5-HT-induced contractions in guinea pig ileum; assay: Inhibition of 5-HT-induced contractions in guinea pig ileum (Assay 3); details: Cavia porcellus, 5-HT 2.6 μM, read-out: Inhibition of 5-HT-induced contraction (%)
Outline: as §2

T2 sequence (O35433 whole entry): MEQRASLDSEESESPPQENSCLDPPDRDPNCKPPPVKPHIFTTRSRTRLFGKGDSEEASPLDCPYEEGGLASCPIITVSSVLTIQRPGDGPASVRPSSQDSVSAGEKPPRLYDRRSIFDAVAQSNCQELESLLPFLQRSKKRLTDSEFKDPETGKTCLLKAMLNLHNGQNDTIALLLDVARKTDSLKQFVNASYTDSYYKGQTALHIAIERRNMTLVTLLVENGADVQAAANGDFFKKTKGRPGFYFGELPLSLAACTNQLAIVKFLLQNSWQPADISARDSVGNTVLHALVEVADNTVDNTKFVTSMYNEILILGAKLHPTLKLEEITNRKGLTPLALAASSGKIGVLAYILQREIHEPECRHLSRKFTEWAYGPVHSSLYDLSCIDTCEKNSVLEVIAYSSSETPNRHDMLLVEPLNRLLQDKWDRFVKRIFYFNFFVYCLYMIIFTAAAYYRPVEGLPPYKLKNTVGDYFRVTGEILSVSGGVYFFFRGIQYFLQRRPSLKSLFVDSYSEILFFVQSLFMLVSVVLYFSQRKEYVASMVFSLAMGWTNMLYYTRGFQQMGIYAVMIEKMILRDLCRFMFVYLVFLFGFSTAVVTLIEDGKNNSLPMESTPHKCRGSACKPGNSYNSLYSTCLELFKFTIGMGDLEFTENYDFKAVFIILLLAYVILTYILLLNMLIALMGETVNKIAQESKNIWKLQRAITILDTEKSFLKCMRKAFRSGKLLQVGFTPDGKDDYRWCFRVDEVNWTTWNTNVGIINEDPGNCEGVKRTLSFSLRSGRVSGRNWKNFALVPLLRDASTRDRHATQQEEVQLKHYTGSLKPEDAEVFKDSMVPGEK

Row | Structure (SMILES) | Decrease in cell viability (%) ([1]; 3 μM) | Decrease in cell viability (%) ([1]; 30 μM) | inhibition at 3 µM [2] | inhibition at 30 µM [2] | inhibition at 3 µM [3] | inhibition at 30 µM [3] | inhibition at 3 µM [4] | inhibition at 30 µM [4] | inhibition at 3 µM [5] | inhibition at 30 µM [5] | Emax at 3 µM [5] | Emax at 30 µM [5] | Emax [6] | inhibition at 3 µM [7] | inhibition at 30 µM [7]
1 | COc1cc(CCC(=O)CC(=O)c2ccccc2)ccc1O [Compound 69, 5-(4-Hydroxy-3-methoxyphenyl)-1-phenyl-pentane-1,3-dione] | 3% | 4% | 9% | 41% | 89% | 96% | 89% | 102% | -49% | 23% | 49% | 36% | 38% | 9% | 63%
2 | COc1cc(CCC(=O)C(C)(C)C(=O)c2ccccc2)ccc1O [Compound 32, 2,2-Dimethyl-5-(4-hydroxy-3-methoxy-phenyl)-1-phenyl-pentane-1,3-dione] | −4% | −3% | 15% | 89% | 45% | 96% | 67% | 101% | 47% | 40% | 22% | 21% | – | 9% | 93%
3 | COc1cc(CCC(=O)CC(=O)C2(C)CC2)ccc1O [Compound 6, 5-(4-Hydroxy-3-methoxyphenyl)-1-(1-methylcyclopropyl)-pentane-1,3-dione] | 6% | 4% | 0% | 12% | 47% | 78% | 88% | 102% | 15% | 28% | 52% | 49% | 24% | 0% | 34%
4 | COc1cc(CCC(=O)C(C)C(=O)c2ccccc2)ccc1O (centres unmarked) [Compound 11, 5-(4-Hydroxy-3-methoxy-phenyl)-2-methyl-1-phenyl-pentane-1,3-dione] | 1% | −7% | 0% | 32% | 47% | 92% | 79% | 100% | 8% | 12% | 24% | 111% | 68% | 0% | 53%
5 | COc1cc(CCC(=O)CC(=O)C(C)(C)C)ccc1O [Compound 2, 6,6-Dimethyl-1-(4-hydroxy-3-methoxyphenyl)-heptane-3,5-dione] | −2% | 4% | 0% | 28% | 30% | 76% | 88% | 102% | -46% | -8% | 20% | 117% | 96% | 8% | 79%
